Literature values as cited in patent publication US20240237650A1, “AQUEOUS FUNGICIDE MIXTURE FORMULATION” (ADAMA MAKHTESHIM LTD., priority 2021, published 2024).
Where two headings read alike, the source gives them in different places.

Details: 20° C.

Compound: CO/C=C(/C(=O)OC)c1ccccc1Oc1cc(Oc2ccccc2C#N)ncn1 [azoxystrobin, methyl (E)-2-{2[6-(2-cyanophenoxy)pyrimidin-4-yloxy]phenyl}-3-methoxyacrylate]
- solubility of azoxystrobin in water (pH 5.2 and 7.0): 6.7 µg/mL
- solubility of azoxystrobin in water (pH 9.2): 5.9 µg/mL
